From patent US20090155784A1, “ASSESSMENT OF ASTHMA AND ALLERGEN-DEPENDENT GENE EXPRESSION” (Wyeth, priority 2007, published 2009)

How the values were obtained:
[1] = system: PBMCs from asthma subjects; experiment: HG-U133A transcriptional profiling of allergen-stimulated PBMCs of asthma subjects (AOS), with and without cPLA2 inhibitor, 6 days culture; clustering and Ingenuity pathway analysis; type: cell-based, human
Source text: (§1) PBMCs were stimulated in vitro with a cocktail containing 4 different allergens from house dust mite, ragweed and cat. Recombinant allergens, Der p1, Der f2, Fel d1 (Indoor Biotech, Charlottesville, Va.) and natural ragweed allergen (Allergy Lab, Seattle, Wash.) were selected and screened for endotoxin contamination (LAL Endotoxin Test, Catalog #HIT302, sensitivity, 0.0001 Eu/ml, Cell Sciences, Canton, Mass.). The sensitivity of the subjects was unknown but the allergens were chosen based on the estimate that 80% of allergic individuals are believed to react to one or more of these allergens. Culture medium contained RPMI-1640 (Sigma) with 10% heat inactivated FCS (Sigma St. Louis, Mo.) and 100 unit/mL Penicillin and […] Streptomycin and 0.292 mg/mL Glutamine (GIBCO RL Invitrogen, Carlsbad, Calif.). The final allergen cocktail concentrations in culture medium were: Der p1 and Der f2 (dust mite), 1 mg/ml; Fel d1 (cat), 1.25 mg/ml; ragweed, 125 mg/ml. The total level of endotoxin contamination in culture medium was 0.057 Eu/ml. The cPLA2 inhibitor 4-{3-[1-benzhydryl-5-chloro-2-(2-{[(2,6-dimethylbenzyl)sulfonyl]amino}ethyl)-1H-indol-3-yl]propyl}benzoic acid was used at a concentration of 0.3 μM/ml. Zileuton, a 5-lipoxygenase inhibitor, was added at a concentration of 5 μM. The inhibitory activity of both the cPLA2 inhibitor and Zileuton samples were verified in a human whole blood assay. After 6 days in culture approximately 200 μL of supernatant was removed using an 8-channel pipettor without disturbing the cell pellet and placed into a collection plate for cytokine ELISA assays. To the remaining cell pellet 100 μL of RLT lysis buffer containing 1% beta-mercaptoethanol was added and snap frozen for RNA purification.
(§2) RNA was purified using QIA shredders and Rneasy mini kits (Qiagen, Valencia, Calif.). PBMC pellets frozen in RLT lysis buffer containing 1% β-mercaptoethanol were thawed and processed for total RNA isolation using the QIA shredder and RNeasy mini kit. A phenol:chloroform extraction was then performed, and the RNA was repurified using the RNeasy mini kit reagents. Eluted RNA was quantified using a Spectramax96 well plate UV reader (Molecular Devices, Sunnyvale, Calif., USA) monitoring A260/280 OD values. The quality of each RNA sample was assessed by capillary electrophoresis alongside an RNA molecular weight ladder on the Agilent 2100 bioanalyzer (Agilent Technologies, Palo Alto, Calif., USA). RNA samples were assigned quality values of intact (distinct 18S and 28S bands); partially degraded (discernible 18S and 28S bands with presence of low molecular weight bands) or completely degraded (no discernible 18S and 28S bands).
(§3) Labeled targets for oligonucleotide arrays were prepared using a modification of the procedure described by Lockhart et al. (Lockhart (1996) Nat. Biotechnol. 14:1675-80). Labeled targets were hybridized to the HG-U133A Affymetrix GeneChip Array as described in the Affymetrix technical manual. Eleven biotinylated control transcripts ranging in abundance from 3 parts per million (ppm) to 100 ppm were spiked into each sample to function as a standard curve (Hill (2001) Genome Biol. 2:RESEARCH0055). GeneChip MAS 5.0 software was used to evaluate the hybridization intensity, compute the signal value for each probe set and make an absent/present call.
(§4) GeneChips were required to pass the pre-set quality control criteria that the RNA quality metric required a 5′:3′ ratio. Two asthma subjects were excluded from the study due to failure to meet the RNA quality metric and 2 GeneChips from the group treated with cPLA2a inhibitor were excluded for the same reason. The signal value for each probe set was converted into a frequency value representative of the number of transcripts present in 10^6 transcripts by reference to the standard curve (Hill (2001) Genome Biol. 2:RESEARCH0055). […]

[2] = system: PBMCs from healthy volunteers; experiment: HG-U133A transcriptional profiling of allergen-stimulated PBMCs of healthy volunteers (HV/WHV), with and without cPLA2 inhibitor, 6 days culture; type: cell-based, human
Source text: as §1, §2, §3, §4

[3] = gene C10ORF3, probeset 218542_at
[4] = gene CHIT1, probeset 208168_s_at
[5] = gene DAB2, probeset 201279_s_at
[6] = gene DAB2, probeset 210757_x_at
[7] = gene DUSP4, probeset 204015_s_at
[8] = gene FABP3, probeset 205738_s_at
[9] = gene FLJ23311, probeset 219990_at
[10] = gene HS3ST2, probeset 219697_at
[11] = gene PAPSS2, probeset 203060_s_at
[12] = gene PLEKHB2, probeset 201411_s_at
[13] = gene RACGAP1, probeset 222077_s_at
[14] = gene RUVBL1, probeset 201614_s_at
[15] = gene SLC36A1, probeset 213119_at
[16] = gene SLC38A6, probeset 214830_at
[17] = gene SLC39A14, probeset 212110_at
[18] = gene SLCO2B1, probeset 203472_s_at
[19] = gene SLCO2B1, probeset 203473_at
[20] = gene SMC2L1, probeset 204240_s_at
[21] = gene TRIP13, probeset 204033_at
[22] = gene UNK_AI859865, probeset 222036_s_at
[23] = gene UNK_BE966236, probeset 201890_at

## Cc1cccc(C)c1CS(=O)(=O)NCCc1c(CCCc2ccc(C(=O)O)cc2)c2cc(Cl)ccc2n1C(c1ccccc1)c1ccccc1 [cPLA2 inhibitor, 4-{3-[1-benzhydryl-5-chloro-2-(2-{[(2,6-dimethylbenzyl)sulfonyl]amino}ethyl)-1H-indol-3-yl]propyl}benzoic acid]
[1]; allergen + inhibitor
  all T cell responsive and cell cycle genes in the pathway (Network 1, FIG. 3A/3C): significantly changed towards the levels in the healthy subject group
  allergen-induced increase in expression of T cell genes ZAP70, CD28, CD3D: abolished
  genes initially down regulated in asthma samples in the presence of allergen, such as sialoadhesin (SN), CD84, TIMP3: up-regulated in the presence of inhibition
  genes up-regulated in asthma samples in response to allergen, such as ZAP70, LCK, MCM2: reduced to the levels seen in the allergen treated healthy controls
  other immune related genes: CD28, CD3D, IL-21R, HMGB1: downregulated
[1]; allergen + inhibitor, FIG. 3C
  every single probe in Network 1 in the asthmatic population: altered level of expression
[1]; compared to the allergen treatment alone, 0.3 μM/ml
  asthma specific gene expression (167 allergen-asthma specific probesets) in the presence of the inhibitor: altered
[1]; [3]
  Fold Change AOS Allergen vs. cPLA2 inhibitor: −1.255
[1]; gene CDC2, probeset 203213_at
  Fold Change AOS Allergen vs. cPLA2 inhibitor: −1.163
[1]; [4]
  Fold Change AOS Allergen vs. cPLA2 inhibitor: 2.803
[1]; [5]
  Fold Change AOS Allergen vs. cPLA2 inhibitor: 2.442
[1]; [6]
  Fold Change AOS Allergen vs. cPLA2 inhibitor: 2.524
[1]; gene DUSP4, probeset 204014_at
  Fold Change AOS Allergen vs. cPLA2 inhibitor: −1.393
[1]; [7]
  Fold Change AOS Allergen vs. cPLA2 inhibitor: −1.344
[1]; [8]
  Fold Change AOS Allergen vs. cPLA2 inhibitor: 2.574
[1]; [9]
  Fold Change AOS Allergen vs. cPLA2 inhibitor: −1.362
[1]; gene GM2A, probeset 33646_g_at
  Fold Change AOS Allergen vs. cPLA2 inhibitor: 2.499
[1]; gene GM2A, probeset 209727_at
  Fold Change AOS Allergen vs. cPLA2 inhibitor: 2.415
[1]; [10]
  Fold Change AOS Allergen vs. cPLA2 inhibitor: 4.363
[1]; gene ME1, probeset 204059_s_at
  Fold Change AOS Allergen vs. cPLA2 inhibitor: 2.986
[1]; gene MELK, probeset 204825_at
  Fold Change AOS Allergen vs. cPLA2 inhibitor: −1.228
[1]; gene OIP5, probeset 213599_at
  Fold Change AOS Allergen vs. cPLA2 inhibitor: −1.141
[1]; [11]
  Fold Change AOS Allergen vs. cPLA2 inhibitor: 2.162
[1]; [12]
  Fold Change AOS Allergen vs. cPLA2 inhibitor: 2.51
[1]; gene POLG, probeset 213007_at
  Fold Change AOS Allergen vs. cPLA2 inhibitor: −1.163
[1]; [13]
  Fold Change AOS Allergen vs. cPLA2 inhibitor: −1.167
[1]; [14]
  Fold Change AOS Allergen vs. cPLA2 inhibitor: −1.215
[1]; [15]
  Fold Change AOS Allergen vs. cPLA2 inhibitor: 2.385
[1]; [16]
  Fold Change AOS Allergen vs. cPLA2 inhibitor: 2.908
[1]; [17]
  Fold Change AOS Allergen vs. cPLA2 inhibitor: −1.323
[1]; [18]
  Fold Change AOS Allergen vs. cPLA2 inhibitor: 2.698
[1]; [19]
  Fold Change AOS Allergen vs. cPLA2 inhibitor: 2.609
[1]; [20]
  Fold Change AOS Allergen vs. cPLA2 inhibitor: −1.245
[1]; gene SN, probeset 219519_s_at
  Fold Change AOS Allergen vs. cPLA2 inhibitor: 4.378
[1]; [21]
  Fold Change AOS Allergen vs. cPLA2 inhibitor: −1.358
[1]; [22]
  Fold Change AOS Allergen vs. cPLA2 inhibitor: −1.203
[1]; [23]
  Fold Change AOS Allergen vs. cPLA2 inhibitor: −1.167
[2]; allergen + inhibitor, data not shown
  genes down regulated in response to allergen in Network 1 in the healthy population: brought up to non-allergen-stimulated background levels
[2]; [3]
  Fold Change WHV Allergen vs. cPLA2 inhibitor: −1.335
[2]; gene CDC2, probeset 203213_at
  Fold Change WHV Allergen vs. cPLA2 inhibitor: −1.258
[2]; [4]
  Fold Change WHV Allergen vs. cPLA2 inhibitor: 2.013
[2]; [5]
  Fold Change WHV Allergen vs. cPLA2 inhibitor: 1.413
[2]; [6]
  Fold Change WHV Allergen vs. cPLA2 inhibitor: 1.326
[2]; gene DUSP4, probeset 204014_at
  Fold Change WHV Allergen vs. cPLA2 inhibitor: −1.388
[2]; [7]
  Fold Change WHV Allergen vs. cPLA2 inhibitor: −1.157
[2]; [8]
  Fold Change WHV Allergen vs. cPLA2 inhibitor: −1.037
[2]; [9]
  Fold Change WHV Allergen vs. cPLA2 inhibitor: 1.042
[2]; gene GM2A, probeset 33646_g_at
  Fold Change WHV Allergen vs. cPLA2 inhibitor: 1.344
[2]; gene GM2A, probeset 209727_at
  Fold Change WHV Allergen vs. cPLA2 inhibitor: 1.211
[2]; [10]
  Fold Change WHV Allergen vs. cPLA2 inhibitor: 1.288
[2]; gene ME1, probeset 204059_s_at
  Fold Change WHV Allergen vs. cPLA2 inhibitor: 1.518
[2]; gene MELK, probeset 204825_at
  Fold Change WHV Allergen vs. cPLA2 inhibitor: −1.213
[2]; gene OIP5, probeset 213599_at
  Fold Change WHV Allergen vs. cPLA2 inhibitor: −1.067
[2]; [11]
  Fold Change WHV Allergen vs. cPLA2 inhibitor: 1.13
[2]; [12]
  Fold Change WHV Allergen vs. cPLA2 inhibitor: 1.277
[2]; gene POLG, probeset 213007_at
  Fold Change WHV Allergen vs. cPLA2 inhibitor: −1.337
[2]; [13]
  Fold Change WHV Allergen vs. cPLA2 inhibitor: −1.108
[2]; [14]
  Fold Change WHV Allergen vs. cPLA2 inhibitor: −1.144
[2]; [15]
  Fold Change WHV Allergen vs. cPLA2 inhibitor: 1.279
[2]; [16]
  Fold Change WHV Allergen vs. cPLA2 inhibitor: 1.206
[2]; [17]
  Fold Change WHV Allergen vs. cPLA2 inhibitor: −1.568
[2]; [18]
  Fold Change WHV Allergen vs. cPLA2 inhibitor: 1.211
[2]; [19]
  Fold Change WHV Allergen vs. cPLA2 inhibitor: 1.237
[2]; [20]
  Fold Change WHV Allergen vs. cPLA2 inhibitor: −1.27
[2]; gene SN, probeset 219519_s_at
  Fold Change WHV Allergen vs. cPLA2 inhibitor: 1.618
[2]; [21]
  Fold Change WHV Allergen vs. cPLA2 inhibitor: −1.317
[2]; [22]
  Fold Change WHV Allergen vs. cPLA2 inhibitor: −1.29
[2]; [23]
  Fold Change WHV Allergen vs. cPLA2 inhibitor: −1.202
